Measured values published in patent publication US11058678B2 (Enanta Pharmaceuticals, Inc., priority 2018, dated 2021).

Test system: HBV (2.2.15 cells)
Experiment: Antiviral activity in 2.2.15 cells: reduction of viral product accumulation (qPCR of lysates, HBsAg or HBeAg ELISA)
Assay type: cell-based, hepatitis B virus (HBV)
Conditions: Hepatitis B virus, 120 h, day 5 post treatment, 50% reduction of viral product accumulation in lysates or supernatants vs no drug controls, readout (qPCR, HBsAg, HBeAg) not specified
Procedure, shortened: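 HBV-producing 2.2.15 cells, 35,000/well, treated with 5-fold serial compound dilutions at 0.5% final DMSO for 5 days. Lysate HBV DNA by qPCR or supernatant HBsAg/HBeAg by ELISA; EC50 is 50% reduction versus no-drug control, binned A<0.1 μM, B 0.1-1 μM, C>1 μM.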

Going from COCCCOc1cc2c(cc1-c1ccc(Cl)cc1)-c1cc(=O)c(C(=O)O)cn1[C@H]1[C@@H]2COC1(C)C [Example 137, (3aS,12bR)-10-(4-chlorophenyl)-11-(3-methoxypropoxy)-3,3-dimethyl-7-oxo-3,3a,7,12b-tetrahydro-1H-furo[3,4-c]pyrido[2,1-a]isoquinoline-6-carboxylic Acid] to COCCCOc1cc2c(cc1-c1cccc(Cl)c1)-c1cc(=O)c(C(=O)O)cn1[C@H]1[C@@H]2COC1(C)C [Example 138, (3aS,12bR)-10-(3-chlorophenyl)-11-(3-methoxypropoxy)-3,3-dimethyl-7-oxo-3,3a,7,12b-tetrahydro-1H-furo[3,4-c]pyrido[2,1-a]isoquinoline-6-carboxylic Acid], the EC50 falls from over 1000 nM to under 100 nM. The second is the more potent here.

Compared with COCCCOc1cc2c(cc1-c1ccc3c(c1)OCCC3)-c1cc(=O)c(C(=O)O)cn1[C@H](C(C)(C)C)C2 [Example 39, (S)-6-(tert-butyl)-10-(chroman-7-yl)-9-(3-methoxypropoxy)-2-oxo-6,7-dihydro-2H-pyrido[2,1-a]isoquinoline-3-carboxylic Acid], COCCCOc1cc2c(cc1-c1ccc3c(c1)OCCO3)-c1cc(=O)c(C(=O)O)cn1[C@H](C(C)(C)C)C2 [Example 31, (S)-6-(tert-butyl)-10-(2,3-dihydrobenzo[b][1,4]dioxin-6-yl)-9-(3-methoxypropoxy)-2-oxo-6,7-dihydro-2H-pyrido[2,1-a]isoquinoline-3-carboxylic Acid] is lower in EC50: over 1000 nM for the first, under 100 nM for the second.

First: COCCCOc1cc2c(cc1N1CCC(F)(F)C1)-c1cc(=O)c(C(=O)O)cn1[C@H](C(C)(C)C)C2 [Example 54, (S)-6-(tert-butyl)-10-(3,3-difluoropyrrolidin-1-yl)-9-(3-methoxypropoxy)-2-oxo-6,7-dihydro-2H-pyrido[2,1-a]isoquinoline-3-carboxylic Acid]
Second: COCCCOc1cc2c(cc1C1=COCCC1)-c1cc(=O)c(C(=O)O)cn1[C@H](C(C)(C)C)C2 [Example 42, (S)-6-(tert-butyl)-10-(3,4-dihydro-2H-pyran-5-yl)-9-(3-methoxypropoxy)-2-oxo-6,7-dihydro-2H-pyrido[2,1-a]isoquinoline-3-carboxylic Acid]
The EC50 of the first is higher: 100 to 1000 nM for the first, under 100 nM for the second.

CC(C)[C@@H]1Cc2c(cc(N3CCC3)c3c2CCO3)-c2cc(=O)c(C(=O)O)cn21 [Example 117, (S)-12-(azetidin-1-yl)-5-isopropyl-9-oxo-2,3,4,9-tetrahydro-5H-furo[3,2-f]pyrido[2,1-a]isoquinoline-8-carboxylic Acid] and CC(C)(C)[C@@H]1Cc2c(cc(N3CCOCC3)c3c2CCO3)-c2cc(=O)c(C(=O)O)cn21 [Example 118, (S)-5-(tert-butyl)-12-morpholino-9-oxo-2,3,4,9-tetrahydro-5H-furo[3,2-f]pyrido[2,1-a]isoquinoline-8-carboxylic Acid] cannot be ordered by EC50: under 100 nM for the first, under 100 nM for the second.

COCCCOc1cc2c(cc1-c1ccccc1F)-c1cc(=O)c(C(=O)O)cn1[C@H]1[C@@H]2COC1(C)C [Example 136, (3aS,12bR)-10-(2-fluorophenyl)-11-(3-methoxypropoxy)-3,3-dimethyl-7-oxo-3,3a,7,12b-tetrahydro-1H-furo[3,4-c]pyrido[2,1-a]isoquinoline-6-carboxylic Acid] and COCCCOc1cc2c(cc1-c1ccco1)-c1cc(=O)c(C(=O)O)cn1[C@H]1[C@@H]2COC1(C)C [Example 125, (3aS,12bR)-10-(furan-2-yl)-11-(3-methoxypropoxy)-3,3-dimethyl-7-oxo-3,3a,7,12b-tetrahydro-1H-furo[3,4-c]pyrido[2,1-a]isoquinoline-6-carboxylic Acid] cannot be ordered by EC50: under 100 nM for the first, under 100 nM for the second.

COCCCOc1cc2c(cc1-c1cn[nH]c1)-c1cc(=O)c(C(=O)O)cn1[C@H]1[C@@H]2COC1(C)C [Example 135, (3aS,12bR)-11-(3-methoxypropoxy)-3,3-dimethyl-7-oxo-10-(1H-pyrazol-4-yl)-3,3a,7,12b-tetrahydro-1H-furo[3,4-c]pyrido[2,1-a]isoquinoline-6-carboxylic Acid] and COCCCOc1cc2c(cc1-c1cnsc1)-c1cc(=O)c(C(=O)O)cn1[C@H]1[C@@H]2COC1(C)C [Example 127, (3aS,12bR)-10-(isothiazol-4-yl)-11-(3-methoxypropoxy)-3,3-dimethyl-7-oxo-3,3a,7,12b-tetrahydro-1H-furo[3,4-c]pyrido[2,1-a]isoquinoline-6-carboxylic Acid] cannot be ordered by EC50: under 100 nM for the first, under 100 nM for the second.

Compared with COCCCOc1cc2c(cc1-c1ccc(OC3CC3)cc1)-c1cc(=O)c(C(=O)O)cn1[C@H](C(C)(C)C)C2 [Example 40, (S)-6-(tert-butyl)-10-(4-cyclopropoxyphenyl)-9-(3-methoxypropoxy)-2-oxo-6,7-dihydro-2H-pyrido[2,1-a]isoquinoline-3-carboxylic Acid], COCCCOc1cc2c(cc1-c1ccc(OC(F)F)cc1)-c1cc(=O)c(C(=O)O)cn1[C@H](C(C)(C)C)C2 [Example 56, (S)-6-(tert-butyl)-10-(4-(difluoromethoxy)phenyl)-9-(3-methoxypropoxy)-2-oxo-6,7-dihydro-2H-pyrido[2,1-a]isoquinoline-3-carboxylic Acid] is lower in EC50: over 1000 nM for the first, under 100 nM for the second. The second is the more potent here.

CC(C)(C)[C@@H]1Cc2c(cc(-c3ccc(C(F)(F)F)cc3)c3c2CCO3)-c2cc(=O)c(C(=O)O)cn21 [Example 80, (S)-5-(tert-butyl)-9-oxo-12-(4-(trifluoromethyl)phenyl)-2,3,4,9-tetrahydro-5H-furo[3,2-f]pyrido[2,1-a]isoquinoline-8-carboxylic Acid] and CC(C)[C@@H]1Cc2c(cc(-c3ccc(C(F)(F)F)cc3)c3c2CCO3)-c2cc(=O)c(C(=O)O)cn21 [Example 94, (S)-5-isopropyl-9-oxo-12-(4-(trifluoromethyl)phenyl)-2,3,4,9-tetrahydro-5H-furo[3,2-f]pyrido[2,1-a]isoquinoline-8-carboxylic Acid] cannot be ordered by EC50: over 1000 nM for the first, over 1000 nM for the second.

First: COCCCOc1cc2c(cc1-c1ccoc1)-c1cc(=O)c(C(=O)O)cn1[C@H]1[C@@H]2COC1(C)C [Example 126, (3aS,12bR)-10-(furan-3-yl)-11-(3-methoxypropoxy)-3,3-dimethyl-7-oxo-3,3a,7,12b-tetrahydro-1H-furo[3,4-c]pyrido[2,1-a]isoquinoline-6-carboxylic Acid]
Second: COCCCOc1cc2c(cc1-c1ccc3oncc3c1)-c1cc(=O)c(C(=O)O)cn1[C@H](C(C)(C)C)C2 [Example 47, (S)-10-(benzo[d]isoxazol-5-yl)-6-(tert-butyl)-9-(3-methoxypropoxy)-2-oxo-6,7-dihydro-2H-pyrido[2,1-a]isoquinoline-3-carboxylic Acid]
The EC50 of the first is lower: under 100 nM for the first, over 1000 nM for the second.

First: CC(C)(C)[C@@H]1Cc2c(cc(N3CC4(COC4)C3)c3c2CCO3)-c2cc(=O)c(C(=O)O)cn21 [Example 119, (S)-5-(tert-butyl)-9-oxo-12-(2-oxa-6-azaspiro[3.3]heptan-6-yl)-2,3,4,9-tetrahydro-5H-furo[3,2-f]pyrido[2,1-a]isoquinoline-8-carboxylic Acid]
Second: COc1ccc(-c2cc3c(c4c2OCC4)C[C@@H](C(C)(C)C)n2cc(C(=O)O)c(=O)cc2-3)cc1 [Example 78, (S)-5-(tert-butyl)-12-(4-methoxyphenyl)-9-oxo-2,3,4,9-tetrahydro-5H-furo[3,2-f]pyrido[2,1-a]isoquinoline-8-carboxylic Acid]
The EC50 of the first is higher: over 1000 nM for the first, under 100 nM for the second. The second is the more potent here.

First: CC1(C)Cc2c3c(cc(-c4ccoc4)c2O1)-c1cc(=O)c(C(=O)O)cn1[C@H](C(C)(C)C)C3 [Example 133, (S)-5-(tert-butyl)-12-(furan-3-yl)-2,2-dimethyl-9-oxo-2,3,4,9-tetrahydro-5H-furo[3,2-f]pyrido[2,1-a]isoquinoline-8-carboxylic acid]
Second: CC(C)(C)[C@@H]1Cc2ccc(N3CC(F)(F)C3)cc2-c2cc(=O)c(C(=O)O)cn21 [Example 154, (S)-6-(tert-butyl)-10-(3,3-difluoroazetidin-1-yl)-2-oxo-6,7-dihydro-2H-pyrido[2,1-a]isoquinoline-3-carboxylic Acid]
The EC50 of the first is lower: 100 to 1000 nM for the first, over 1000 nM for the second.

CC(C)[C@@H]1Cc2c(cc(-c3ccnn3C)c3c2CCO3)-c2cc(=O)c(C(=O)O)cn21 [Example 96, (S)-5-isopropyl-12-(1-methyl-1H-pyrazol-5-yl)-9-oxo-2,3,4,9-tetrahydro-5H-furo[3,2-f]pyrido[2,1-a]isoquinoline-8-carboxylic Acid] and CC(C)[C@@H]1Cc2c(cc(-c3ccccc3F)c3c2CCO3)-c2cc(=O)c(C(=O)O)cn21 [Example 108, (S)-12-(2-fluorophenyl)-5-isopropyl-9-oxo-2,3,4,9-tetrahydro-5H-furo[3,2-f]pyrido[2,1-a]isoquinoline-8-carboxylic Acid] cannot be ordered by EC50: under 100 nM for the first, under 100 nM for the second.

COCCCOc1cc2c(cc1-c1c(C)nn(C)c1C)-c1cc(=O)c(C(=O)O)cn1[C@H](C(C)(C)C)C2 [Example 33, (S)-6-(tert-butyl)-9-(3-methoxypropoxy)-2-oxo-10-(1,3,5-trimethyl-1H-pyrazol-4-yl)-6,7-dihydro-2H-pyrido[2,1-a]isoquinoline-3-carboxylic Acid] and CCc1nnc(-c2cc3c(cc2OCCCOC)C[C@@H](C(C)(C)C)n2cc(C(=O)O)c(=O)cc2-3)o1 [Example 43, (S)-6-(tert-butyl)-10-(5-ethyl-1,3,4-oxadiazol-2-yl)-9-(3-methoxypropoxy)-2-oxo-6,7-dihydro-2H-pyrido[2,1-a]isoquinoline-3-carboxylic Acid] cannot be ordered by EC50: under 100 nM for the first, under 100 nM for the second.

CC(C)[C@@H]1Cc2c(cc(-c3cccc(C(F)(F)F)c3)c3c2CCO3)-c2cc(=O)c(C(=O)O)cn21 [Example 95, (S)-5-isopropyl-9-oxo-12-(3-(trifluoromethyl)phenyl)-2,3,4,9-tetrahydro-5H-furo[3,2-f]pyrido[2,1-a]isoquinoline-8-carboxylic Acid] and CC(C)[C@@H]1Cc2c(cc(-c3ccc(Cl)cc3)c3c2CCO3)-c2cc(=O)c(C(=O)O)cn21 [Example 109, (S)-12-(4-chlorophenyl)-5-isopropyl-9-oxo-2,3,4,9-tetrahydro-5H-furo[3,2-f]pyrido[2,1-a]isoquinoline-8-carboxylic Acid] cannot be ordered by EC50: over 1000 nM for the first, over 1000 nM for the second.
